These results are taken from US7723321B2, “Chromane substituted benzimidazole derivatives” (RaQualia Pharma Inc., priority 2005, dated 2010).

Usually IC50 stands for the concentration that inhibits the measured activity by half.

T1 sequence (P19156 2-1034 limits assumed): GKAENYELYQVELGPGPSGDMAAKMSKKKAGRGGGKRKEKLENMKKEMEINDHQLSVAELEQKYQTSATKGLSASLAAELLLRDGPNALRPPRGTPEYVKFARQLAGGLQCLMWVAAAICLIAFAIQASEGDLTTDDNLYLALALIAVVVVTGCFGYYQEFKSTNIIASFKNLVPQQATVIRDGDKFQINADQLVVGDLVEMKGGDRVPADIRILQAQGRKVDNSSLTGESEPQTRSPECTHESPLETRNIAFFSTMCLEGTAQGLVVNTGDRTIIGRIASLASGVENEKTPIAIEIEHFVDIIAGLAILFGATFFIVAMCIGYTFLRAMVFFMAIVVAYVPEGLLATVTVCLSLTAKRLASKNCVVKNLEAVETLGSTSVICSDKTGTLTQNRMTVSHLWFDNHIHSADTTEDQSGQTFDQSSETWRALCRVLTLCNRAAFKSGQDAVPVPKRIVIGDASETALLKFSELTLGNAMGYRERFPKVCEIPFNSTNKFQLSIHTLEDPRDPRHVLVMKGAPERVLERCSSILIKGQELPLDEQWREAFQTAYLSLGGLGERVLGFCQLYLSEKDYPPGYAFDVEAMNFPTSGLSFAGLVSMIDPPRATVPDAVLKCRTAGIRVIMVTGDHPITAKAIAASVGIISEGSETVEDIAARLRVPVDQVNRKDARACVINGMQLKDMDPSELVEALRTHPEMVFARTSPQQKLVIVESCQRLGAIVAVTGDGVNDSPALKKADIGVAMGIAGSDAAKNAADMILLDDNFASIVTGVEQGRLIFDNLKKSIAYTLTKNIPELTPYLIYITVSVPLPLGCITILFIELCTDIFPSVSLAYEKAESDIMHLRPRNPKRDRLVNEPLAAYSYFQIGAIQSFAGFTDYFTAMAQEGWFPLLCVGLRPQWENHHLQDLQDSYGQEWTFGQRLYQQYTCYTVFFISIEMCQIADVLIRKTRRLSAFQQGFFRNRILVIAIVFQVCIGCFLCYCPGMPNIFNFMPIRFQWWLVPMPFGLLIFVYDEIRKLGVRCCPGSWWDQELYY
T1 sequence (P18434 whole entry partner): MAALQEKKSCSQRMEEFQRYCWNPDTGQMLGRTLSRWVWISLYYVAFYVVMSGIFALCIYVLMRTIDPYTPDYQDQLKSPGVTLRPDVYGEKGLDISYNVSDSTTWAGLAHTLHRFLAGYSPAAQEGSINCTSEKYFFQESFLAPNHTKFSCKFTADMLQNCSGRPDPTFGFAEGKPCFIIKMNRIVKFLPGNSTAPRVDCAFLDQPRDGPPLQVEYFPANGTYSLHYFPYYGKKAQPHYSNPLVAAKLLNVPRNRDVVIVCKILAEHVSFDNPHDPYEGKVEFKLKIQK

One test has as its target T1, porcine gastric H^+/K^+-ATPase (Sus scrofa, UniProt P19156).
T1 construct: prepared from mucous membrane in fresh porcine stomachs by homogenization; from tissue; host or cells: mucous membrane of fresh porcine stomachs (gastric vesicles, Ficoll/sucrose gradient)
Put plainly: Ion-tight porcine gastric H+/K+-ATPase inhibition. It counts as biochemical. Conditions: ion-tight porcine gastric vesicles, 150 mM KCl, valinomycin, pH 7.4, 37° C., 30 minutes. As to the method: The porcine gastric vesicles for Porcine gastric H^+/K^+-ATPase inhibition assays were prepared from mucous membrane in fresh porcine stomachs by homogenization with a tight-fitted polytetrafluoroethylene (Teflone®) homogenizer in 0.25 M sucrose at 4° C. The crude pellet was removed with centrifugation at 20,000 g for 30 min. Then supernatant was centrifuged at 100,000 g for 30 min. The resulting pellet was re-suspended in 0.25 M sucrose, and then subjected to density gradient centrifugation at 132,000 g for 90 min. The gastric vesicles were collected from interface on 0.25 M sucrose layer containing 7% Ficoll™ PM400(Amersham Biosciences). This procedure was performed in a cold room.
Ion-tight porcine gastric H^+/K^+-ATPase inhibition was measured according to the modified method described in Biochemical Pharmacology, 1988, 37, 2231-2236.
The isolated vesicles were kept in deep-freezer until use. For enzyme assay, vesicles were diluted with 3 mM MgSO4 containing 5 mM Tris (pH 7.4 at 37° C.).
Enzyme reaction was performed incubating 150 mM KCl, 3 mM Na2ATP, 3 mM MgSO4 15 μM valinomycin and 3.0 μg of vesicles for 30 minutes at 37° C. in a final 60 μl of reaction mixture (5 mM Tris, pH 7.4) with or without the test compound. Enzyme reaction was stopped by adding 10% SDS. Released inorganic phosphate from ATP was detected by incubating with mixture of 1 part of 35 mM ammonium molybdate tetrahydrate in 15 mM Zinc acetate hydrate and 4 parts of 10% ascorbic acid (pH 5.0), resulting in phosphomolybdate, which has optical density at 750 nm.
Consider `Cc1nc2c(OC3CCOc4cc(F)cc(F)c43)cc(C(=O)N(C)C)cc2[nH]1` (racemic) [Example 1, 4-[(5,7-Difluoro-3,4-dihydro-2H-chromen-4-yl)oxy]-N,N,2-trimethyl-1H-benzimidazole-6-carboxamide], for which the 50% inhibitory concentration (IC50) was 190 nM.

Turning to `Cc1nc2c(OC3CCOc4cc(F)cc(F)c43)cc(C(=O)N3CCCC3)cc2[nH]1` (racemic) [Example 4, 4-[(5,7-Difluoro-3,4-dihydro-2H-chromen-4-yl)oxy]-2-methyl-6-(pyrrolidin-1-ylcarbonyl)-1H-benzimidazole], the IC50 came to 58 nM.

`Cc1nc2c(OC3CCOc4cccc(F)c43)cc(C(=O)N(C)C)cc2[nH]1` (racemic) [Example 9, 4-[(5-Fluoro-3,4-dihydro-2H-chromen-4-yl)oxy]-N,N,2-trimethyl-1H-benzimidazole-6-carboxamide] yielded an IC50 of 130 nM.

For the molecule `Cc1nc2c(O[C@H]3CCOc4cc(F)cc(F)c43)cc(C(=O)N(C)C)cc2[nH]1` (single isomer, unassigned) [Example 2], half-maximal inhibition (IC50) was put at 86 nM.

The molecule `Cc1nc2c(O[C@@H]3CCOc4cc(F)cc(F)c43)cc(C(=O)N(C)C)cc2[nH]1` (single isomer, unassigned) [Example 3] registered an IC50 of 98 nM.

Take `Cc1nc2c(OC3CCOc4cc(F)cc(F)c43)cc(C(=O)N3CCCC3)cc2[nH]1` (single isomer, unassigned; (+)) [Example 5, (+)-4-[(5,7-Difluoro-3,4-dihydro-2H-chromen-4-yl)oxy]-2-methyl-6-(pyrrolidin-1-ylcarbonyl)-1H-benzimidazole]: the IC50 stood at 32 nM.

Molecule `Cc1nc2c(OC3CCOc4cccc(F)c43)cc(C(=O)N(C)C)cc2[nH]1` (single isomer, unassigned; (+)) [Example 11, (+)-4-[(5-Fluoro-3,4-dihydro-2H-chromen-4-yl)oxy]-N,N,2-trimethyl-1H-benzimidazole-6-carboxamide] displayed an IC50 of 120 nM.

Molecule `Cc1nc2c(OC3CCOc4cccc(C)c43)cc(C(=O)N(C)C)cc2[nH]1` (single isomer, unassigned; (+)) [Example 18, (+)-N,N,2-Trimethyl-4-[(5-methyl-3,4-dihydro-2H-chromen-4-yl)oxy]-1H-benzimidazole-6-carboxamide] yielded an IC50 of 130 nM.

`Cc1nc2c(OC3CCOc4cc(F)cc(F)c43)cc(C(=O)N3CCCC3)cc2[nH]1` (single isomer, unassigned; (-)) [Example 6, (−)-4-[(5,7-Difluoro-3,4-dihydro-2H-chromen-4-yl)oxy]-2-methyl-6-(pyrrolidin-1-ylcarbonyl)-1H-benzimidazole] showed a 50% inhibitory concentration (IC50) of 30 nM.

For the molecule `Cc1nc2c(OC3CCOc4cccc(F)c43)cc(C(=O)N(C)C)cc2[nH]1` (single isomer, unassigned; (-)) [Example 10, (−)-4-[(5-Fluoro-3,4-dihydro-2H-chromen-4-yl)oxy]-N,N,2-trimethyl-1H-benzimidazole-6-carboxamide], the half-inhibitory concentration (IC50) amounted to 140 nM.

For the molecule `Cc1nc2c(OC3CCOc4cccc(C)c43)cc(C(=O)N(C)C)cc2[nH]1` (single isomer, unassigned; (-)) [Example 17, (−)-N,N,2-Trimethyl-4-[(5-methyl-3,4-dihydro-2H-chromen-4-yl)oxy]-1H-benzimidazole-6-carboxamide], the IC50 is 99 nM.

As for `Cc1nc2c(OC3CCOc4cc(F)cc(F)c43)cc(C(=O)N3CCC3)cc2[nH]1` (single isomer, unassigned; (-)) [Example 22, (−)-6-(Azetidin-1-ylcarbonyl)-4-[(5,7-difluoro-3,4-dihydro-2H-chromen-4-yl)oxy]-2-methyl-1H-benzimidazole], the IC50 turned out to be 570 nM.

`Cc1nc2c(OC3CCOc4cc(F)cc(F)c43)cc(C(=O)N(C)CCO)cc2[nH]1` (centres unmarked) [Example 7, 4-[(5,7-Difluoro-3,4-dihydro-2H-chromen-4-yl)oxy]-N-(2-hydroxyethyl)-N,2-dimethyl-1H-benzimidazole-6-carboxamide] returned an IC50 of 1100 nM.

`Cc1nc2c(OC3CCOc4cc(F)cc(F)c43)cc(C(=O)N(C)CCN(C)C)cc2[nH]1` (centres unmarked) [Example 8, 4-[(5,7-Difluoro-3,4-dihydro-2H-chromen-4-yl)oxy]-N-[2-(dimethylamino)ethyl]-N,2-dimethyl-1H-benzimidazole-6-carboxamide] yielded a half-maximal inhibitory concentration (IC50) of 610 nM.

In turn, `Cc1nc2c(OC3CCOc4ccccc43)cc(C(=O)N(C)C)cc2[nH]1` (centres unmarked) [Example 12, 4-(3,4-Dihydro-2H-chromen-4-yloxy)-N,N,2-tri methyl-1H-benzimidazole-6-carboxamide] registered a 50% inhibitory concentration (IC50) of 230 nM.

`Cc1nc2c(OC3CCOc4c(F)ccc(C)c43)cc(C(=O)N(C)C)cc2[nH]1` (centres unmarked) [Example 13, 4-[(8-Fluoro-5-methyl-3,4-dihydro-2H-chromen-4-yl)oxy]-N,N,2-trimethyl-1H-benzimidazole-6-carboxamide] yielded a concentration for half-maximal inhibition (IC50) of 130 nM.

Molecule `Cc1nc2c(OC3CCOc4c(F)ccc(F)c43)cc(C(=O)N(C)C)cc2[nH]1` (centres unmarked) [Example 14, 4-[(5,8-Difluoro-3,4-dihydro-2H-chromen-4-yl)oxy]-N,N,2-trimethyl-1H-benzimidazole-6-carboxamide] came in with an IC50 of 220 nM.

The molecule `CCc1nc2c(OC3CCOc4cc(F)cc(F)c43)cc(C(=O)N(C)C)cc2[nH]1` (centres unmarked) [Example 15, 4-[(5,7-Difluoro-3,4-dihydro-2H-chromen-4-yl)oxy]-2-ethyl-N,N-dimethyl-1H-benzimidazole-6-carboxamide] gave a concentration for half-maximal inhibition (IC50) of 210 nM.

For `Cc1nc2c(OC3CCOc4cccc(C)c43)cc(C(=O)N(C)C)cc2[nH]1` (centres unmarked) [Example 16, N,N,2-Trimethyl-4-[(5-methyl-3,4-dihydro-2H-chromen-4-yl)oxy]-1H-benzimidazole-6-carboxamide], the IC50 came out at 68 nM.

For the molecule `CNC(=O)c1cc(OC2CCOc3cccc(C)c32)c2nc(C)[nH]c2c1` (centres unmarked) [Example 19, N,2-Dimethyl-4-[(5-methyl-3,4-dihydro-2H-chromen-4-yl)oxy]-1H-benzimidazole-6-carboxamide], the half-maximal inhibitory concentration (IC50) stood at 240 nM.

In the case of `Cc1nc2c(OC3CCOc4cccc(C)c43)cc(C(=O)N3CCCC3)cc2[nH]1` (centres unmarked) [Example 20, 2-Methyl-4-[(5-methyl-3,4-dihydro-2H-chromen-4-yl)oxy]-6-(pyrrolidin-1-ylcarbonyl)-1H-benzimidazole], the 50% inhibitory concentration (IC50) is 71 nM.

In turn, `Cc1nc2c(OC3CCOc4cc(F)cc(C)c43)cc(C(=O)N(C)C)cc2[nH]1` (centres unmarked) [Example 21, 4-[(7-Fluoro-5-methyl-3,4-dihydro-2H-chromen-4-yl)oxy]-N,N,2-trimethyl-1H-benzimidazole-6-carboxamide] showed a concentration for half-maximal inhibition (IC50) of 82 nM.

The molecule `CCN(C)C(=O)c1cc(O[C@H]2CCOc3cc(F)cc(F)c32)c2nc(C)[nH]c2c1` [Example 23, (−)-4-[(5,7-Difluoro-3,4-dihydro-2H-chromen-4-yl)oxy]-N-ethyl-N,2-dimethyl-1H-benzimidazole-6-carboxamide] showed an IC50 of 110 nM.

`Cc1nc2c(O[C@H]3CCOc4cc(F)cc(F)c43)cc(C(=O)N3CCOCC3)cc2[nH]1` [Example 24, (−)-4-[(5,7-Difluoro-3,4-dihydro-2H-chromen-4-yl)oxy]-2-methyl-6-(morpholin-4-ylcarbonyl)-1H-benzimidazole]: the IC50 turned out to be 370 nM.

With `Cc1nc2c(OC3CCSc4ccccc43)cc(C(=O)N(C)C)cc2[nH]1` (centres unmarked) [Example 25, 4-(3,4-Dihydro-2H-thiochromen-4-yloxy)-N,N,2-trimethyl-1H-benzimidazole-6-carboxamide], the IC50 is 160 nM.

A further test deals with gastric acid secretion. Put plainly: Inhibition of gastric acid secretion in the Heidenhain pouch dog. The note with it: histamine-stimulated acid secretion, maximum inhibition relative to control. It counts as in vivo, Beagle dogs. As to the method:
Male Beagle dogs weighing 7-15 kg with Heidenhain pouch [Heidenhain R: Arch Ges Physiol. 1879, 19: 148-167] were used. The animals were allowed to recover from surgery for at least three weeks before the experiments. The animals were kept at a 12 hour light-dark rhythm, housed singly. They received standard food once daily at 11:00 a.m. and tap water ad libitum, and were fasted overnight prior to the experiment, with free access to water. Gastric juice samples were collected throughout the experiment by gravity drainage every 15 min. Acidity in the gastric juice was measured by titration to the end point of pH 7.0. Acid secretion was stimulated by a continuous intravenous infusion of histamine (80 μg/kg/h). Oral or intravenous bolus administration of the test compounds was done 90 minutes after commencement of the histamine infusion. The acid secretion was monitored after the administration. The activity was evaluated by the maximum inhibition relative to the corresponding control value.
As for `Cc1nc2c(O[C@H]3CCOc4cc(F)cc(F)c43)cc(C(=O)N(C)C)cc2[nH]1` (single isomer, unassigned) [Example 2], the “inhibitory activity (gastric acid secretion)” value is listed as “good inhibitory activity”.
